Literature values in US5086043A, “Production of Saponins of Lichi” (priority 1990, dated 1992).

Tests used:
[1] = system: carrageenin-induced swelling; conditions: rats; established in the prior art
capillary permeability = conditions: mice; established in the prior art

## CC1(C)CC[C@]2(C(=O)O)CC[C@]3(C)C(=CC[C@@H]4[C@@]5(C)CC[C@H](O)C(C)(C)[C@@H]5CC[C@]43C)[C@@H]2C1 [oleanolic acid, Oleanolic acid]
[1]
  carrageenin-induced swelling: inhibited carrageenin-induced swelling in rats
Capillary permeability
  capillary permeability: inhibited capillary permeability in mice
